In PubChem BioAssay AID1963434 (Molecular Pharmacology Branch, DTP, NCI, 2024):

Tested on: 755483-174-R-J1-PDC complex spheroid growth, percent test/control
Experiment: Anticancer human tumor 755483-174-R-J1-PDC patient-derived rhabdomyosarcoma cell line growth inhibition [Asc]
Conditions: for IC50: curve of first compound; for viability, T/C: stronger effect = lower value
Method in brief: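 Concentration series start at each agent's clinical Cmax, or at 10 microM when none is established, and drop in half-log steps; agents are applied alone or together to complex spheroids built with HUVEC and hMSC.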

[1] = second compound 0.1 µM, first compound 0.0316 µM
[2] = second compound 0.1 µM, first compound 0.1 µM
[3] = second compound 0.1 µM, first compound 0.316 µM
[4] = second compound 0.1 µM, first compound 1 µM
[5] = second compound 0.1 µM, first compound 3.16 µM
[6] = second compound 0.1 µM, first compound 10 µM
[7] = second compound 0.316 µM, first compound 0.0316 µM
[8] = second compound 0.316 µM, first compound 0.1 µM
[9] = second compound 0.316 µM, first compound 0.316 µM
[10] = second compound 0.316 µM, first compound 1 µM
[11] = second compound 0.316 µM, first compound 3.16 µM
[12] = second compound 0.316 µM, first compound 10 µM
[13] = second compound 1 µM, first compound 0.0316 µM
[14] = second compound 1 µM, first compound 0.1 µM
[15] = second compound 1 µM, first compound 0.316 µM
[16] = second compound 1 µM, first compound 1 µM
[17] = second compound 1 µM, first compound 3.16 µM
[18] = second compound 1 µM, first compound 10 µM
[19] = second compound 3.16 µM, first compound 0.0316 µM
[20] = second compound 3.16 µM, first compound 0.1 µM
[21] = second compound 3.16 µM, first compound 0.316 µM
[22] = second compound 3.16 µM, first compound 1 µM
[23] = second compound 3.16 µM, first compound 3.16 µM
[24] = second compound 3.16 µM, first compound 10 µM
[25] = second compound 10 µM, first compound 0.0316 µM
[26] = second compound 10 µM, first compound 0.1 µM
[27] = second compound 10 µM, first compound 0.316 µM
[28] = second compound 10 µM, first compound 1 µM
[29] = second compound 10 µM, first compound 3.16 µM
[30] = second compound 10 µM, first compound 10 µM
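Note: spheroids exposed to compounds for seven days before readout.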

With `C=C(F)C(=O)N1CCN(c2nc(OCC3CCCN3C)nc3c2CCN(c2cccc4cccc(Cl)c24)C3)CC1CC#N` (stereo not given) + Cc1c(S(C)(=O)=O)c(-c2cc(F)cc(N3CCN(c4ccc(NS(=O)(=O)c5ccc(NC(CCN6CCC(C(=O)OCCCP(=O)(O)O)CC6)CSc6ccccc6)c(S(=O)(=O)C(F)(F)F)c5)cc4)CC3)c2)c(-c2ccc(Cl)cc2)n1C(C)C the IC50 (second compound 0.1 µM) was 235 nM, the IC50 (second compound 0.316 µM) was < 31.6 nM and the IC50 (second compound 1 µM) was < 31.6 nM. For the same compound, the IC50 (second compound 3.16 µM) was < 31.6 nM, the IC50 (second compound 10 µM) was < 31.6 nM and the viability, T/C [1] was 46.4%. It also gave a viability, T/C [2] of 58.9%, a viability, T/C [3] of 49.7% and a viability, T/C [4] of 30.2%. It also gave a viability, T/C [5] of 8.51%, a viability, T/C [6] of 0.1% and a viability, T/C [7] of 39.3%. It also gave a viability, T/C [8] of 48.7%, a viability, T/C [9] of 39.4% and a viability, T/C [10] of 33.4%. It also gave a viability, T/C [11] of 10.8%, a viability, T/C [12] of 0.52% and a viability, T/C [13] of 40.9%. For the same compound, the viability, T/C [14] was 37.9%, the viability, T/C [15] was 32% and the viability, T/C [16] was 20.3%. For the same compound, the viability, T/C [17] was 5.1%, the viability, T/C [18] was 1.75% and the viability, T/C [19] was 35%. The viability, T/C [20] was 27%, the viability, T/C [21] was 30.6% and the viability, T/C [22] was 16.5%. For the same compound, the viability, T/C [23] was 8.95%, the viability, T/C [24] was 0.11% and the viability, T/C [25] was 42.9%. For the same compound, the viability, T/C [26] was 41.7%, the viability, T/C [27] was 34% and the viability, T/C [28] was 20.6%. It also gave a viability, T/C [29] of 11.8% and a viability, T/C [30] of 0.16%.
In the case of `C=CC(=O)N1CCN(c2nc(=O)n(-c3c(C)ccnc3C(C)C)c3nc(-c4c(O)cccc4F)c(F)cc23)C(C)C1` (stereo not given) + Cc1c(S(C)(=O)=O)c(-c2cc(F)cc(N3CCN(c4ccc(NS(=O)(=O)c5ccc(NC(CCN6CCC(C(=O)OCCCP(=O)(O)O)CC6)CSc6ccccc6)c(S(=O)(=O)C(F)(F)F)c5)cc4)CC3)c2)c(-c2ccc(Cl)cc2)n1C(C)C, the IC50 (second compound 0.1 µM) is reported as > 10000 nM, the IC50 (second compound 0.316 µM) is reported as 5510 nM and the IC50 (second compound 1 µM) is reported as < 31.6 nM. The IC50 (second compound 3.16 µM) was > 10000 nM, the IC50 (second compound 10 µM) was < 31.6 nM and the viability, T/C [1] was 79.5%. It also gave a viability, T/C [2] of 46.7%, a viability, T/C [3] of 58.4% and a viability, T/C [4] of 72.9%. It also gave a viability, T/C [5] of 62.3%, a viability, T/C [6] of 56.2% and a viability, T/C [7] of 45.4%. The viability, T/C [8] was 64.7%, the viability, T/C [9] was 44.5% and the viability, T/C [10] was 57.1%. The viability, T/C [11] was 53.2%, the viability, T/C [12] was 46.9% and the viability, T/C [13] was 47.2%. For the same compound, the viability, T/C [14] was 47.4%, the viability, T/C [15] was 54.8% and the viability, T/C [16] was 49%. The viability, T/C [17] was 49.3%, the viability, T/C [18] was 37.7% and the viability, T/C [19] was 52.4%. For the same compound, the viability, T/C [20] was 46%, the viability, T/C [21] was 51.9% and the viability, T/C [22] was 63.2%. For the same compound, the viability, T/C [23] was 48.3%, the viability, T/C [24] was 48.8% and the viability, T/C [25] was 35%. For the same compound, the viability, T/C [26] was 34.6%, the viability, T/C [27] was 50.2% and the viability, T/C [28] was 42.6%. The viability, T/C [29] was 32.8% and the viability, T/C [30] was 42.7%.
In the case of `CCN1C(C(=O)NC23CCC(C(=O)O)(CC2)CC3)C(c2cccc(Cl)c2F)C2(C(=O)Nc3cc(Cl)ccc32)C12CCCCC2` (stereo not given) + Cc1c(S(C)(=O)=O)c(-c2cc(F)cc(N3CCN(c4ccc(NS(=O)(=O)c5ccc(NC(CCN6CCC(C(=O)OCCCP(=O)(O)O)CC6)CSc6ccccc6)c(S(=O)(=O)C(F)(F)F)c5)cc4)CC3)c2)c(-c2ccc(Cl)cc2)n1C(C)C, the IC50 (second compound 0.1 µM) is reported as 1740 nM, the IC50 (second compound 0.316 µM) is reported as < 9.49 nM and the IC50 (second compound 1 µM) is reported as < 9.49 nM. The IC50 (second compound 3.16 µM) was < 9.49 nM, the IC50 (second compound 10 µM) was 26.8 nM and the viability, T/C (second compound 0.1 µM, first compound 0.00949 µM) was 68.7%. For the same compound, the viability, T/C (second compound 0.1 µM, first compound 0.03 µM) was 60.5%, the viability, T/C (second compound 0.1 µM, first compound 0.0949 µM) was 57.5% and the viability, T/C (second compound 0.1 µM, first compound 0.3 µM) was 61.4%. For the same compound, the viability, T/C (second compound 0.1 µM, first compound 0.949 µM) was 65.5%, the viability, T/C (second compound 0.1 µM, first compound 3 µM) was 38.7% and the viability, T/C (second compound 0.316 µM, first compound 0.00949 µM) was 49%. It also gave a viability, T/C (second compound 0.316 µM, first compound 0.03 µM) of 33.9%, a viability, T/C (second compound 0.316 µM, first compound 0.0949 µM) of 55.8% and a viability, T/C (second compound 0.316 µM, first compound 0.3 µM) of 30.4%. For the same compound, the viability, T/C (second compound 0.316 µM, first compound 0.949 µM) was 59.7%, the viability, T/C (second compound 0.316 µM, first compound 3 µM) was 36.1% and the viability, T/C (second compound 1 µM, first compound 0.00949 µM) was 48.3%. It also gave a viability, T/C (second compound 1 µM, first compound 0.03 µM) of 47%, a viability, T/C (second compound 1 µM, first compound 0.0949 µM) of 38.7% and a viability, T/C (second compound 1 µM, first compound 0.3 µM) of 45.5%. The viability, T/C (second compound 1 µM, first compound 0.949 µM) was 29.2%, the viability, T/C (second compound 1 µM, first compound 3 µM) was 40% and the viability, T/C (second compound 3.16 µM, first compound 0.00949 µM) was 36.8%. For the same compound, the viability, T/C (second compound 3.16 µM, first compound 0.03 µM) was 34.1%, the viability, T/C (second compound 3.16 µM, first compound 0.0949 µM) was 34.4% and the viability, T/C (second compound 3.16 µM, first compound 0.3 µM) was 46.9%. The viability, T/C (second compound 3.16 µM, first compound 0.949 µM) was 37.9%, the viability, T/C (second compound 3.16 µM, first compound 3 µM) was 27.5% and the viability, T/C (second compound 10 µM, first compound 0.00949 µM) was 40.6%. It also gave a viability, T/C (second compound 10 µM, first compound 0.03 µM) of 64.6%, a viability, T/C (second compound 10 µM, first compound 0.0949 µM) of 52.8% and a viability, T/C (second compound 10 µM, first compound 0.3 µM) of 38.5%. For the same compound, the viability, T/C (second compound 10 µM, first compound 0.949 µM) was 40.5% and the viability, T/C (second compound 10 µM, first compound 3 µM) was 45.9%.
With `CNC(C)C(=O)NC1CN(S(=O)(=O)c2cccc(S(=O)(=O)N3CCC4CCC(C(=O)NC(c5ccccc5)c5ccccc5)N4C(=O)C(NC(=O)C(C)NC)C3)c2)CCC2CCC(C(=O)NC(c3ccccc3)c3ccccc3)N2C1=O` (stereo not given) + Cc1c(S(C)(=O)=O)c(-c2cc(F)cc(N3CCN(c4ccc(NS(=O)(=O)c5ccc(NC(CCN6CCC(C(=O)OCCCP(=O)(O)O)CC6)CSc6ccccc6)c(S(=O)(=O)C(F)(F)F)c5)cc4)CC3)c2)c(-c2ccc(Cl)cc2)n1C(C)C the IC50 (second compound 0.1 µM) was < 3.16 nM, the IC50 (second compound 0.316 µM) was < 3.16 nM and the IC50 (second compound 1 µM) was < 3.16 nM. For the same compound, the IC50 (second compound 3.16 µM) was < 3.16 nM, the IC50 (second compound 10 µM) was < 3.16 nM and the viability, T/C (second compound 0.1 µM, first compound 0.00316 µM) was 27.1%. It also gave a viability, T/C (second compound 0.1 µM, first compound 0.01 µM) of 20%, a viability, T/C [1] of 39.1% and a viability, T/C [2] of 20.2%. It also gave a viability, T/C [3] of 13.6%, a viability, T/C [4] of 12.2% and a viability, T/C (second compound 0.316 µM, first compound 0.00316 µM) of 36.2%. The viability, T/C (second compound 0.316 µM, first compound 0.01 µM) was 24.1%, the viability, T/C [7] was 15.8% and the viability, T/C [8] was 24.4%. For the same compound, the viability, T/C [9] was 14.7%, the viability, T/C [10] was 12.1% and the viability, T/C (second compound 1 µM, first compound 0.00316 µM) was 29.8%. For the same compound, the viability, T/C (second compound 1 µM, first compound 0.01 µM) was 23.5%, the viability, T/C [13] was 18.2% and the viability, T/C [14] was 22.5%. It also gave a viability, T/C [15] of 11.4%, a viability, T/C [16] of 10.7% and a viability, T/C (second compound 3.16 µM, first compound 0.00316 µM) of 23.7%. It also gave a viability, T/C (second compound 3.16 µM, first compound 0.01 µM) of 15.9%, a viability, T/C [19] of 16.7% and a viability, T/C [20] of 12%. It also gave a viability, T/C [21] of 9.91%, a viability, T/C [22] of 26.8% and a viability, T/C (second compound 10 µM, first compound 0.00316 µM) of 26.3%. For the same compound, the viability, T/C (second compound 10 µM, first compound 0.01 µM) was 14.5%, the viability, T/C [25] was 16.1% and the viability, T/C [26] was 14.2%. It also gave a viability, T/C [27] of 16.2% and a viability, T/C [28] of 7.68%.
